Laboratory results reported in ChEMBL document CHEMBL5584299, “Undobolins A-L, Ophiobolin-Type Sesterterpenoids from Aspergillus undulatus” (J Nat Prod, 2024).

Experiments:
Splenocyte [1] = assay: Immunosuppressive activity in BALB/c mouse splenocytes assessed as inhibition of ConA-induced T cell proliferation incubated for 48 hrs by CCK-8 assay; type: functional, cell-based
RAW264.7 = assay: Antiinflammatory activity against mouse RAW264.7 cells assessed as reduction of LPS-induced NO production preincubated for 2 hrs followed by LPS-stimulation and measured after 12 hrs by Griess reagent assay; type: functional, cell-based
Splenocyte [2] = assay: Immunosuppressive activity in BALB/c mouse splenocytes assessed as inhibition of LPS-induced B cell proliferation incubated for 48 hrs by CCK-8 assay; type: functional, cell-based
Candida albicans = assay: Antifungal activity against Candida albicans ATCC10231 assessed as reduction in microbial growth incubated for 16 hrs by broth microdilution method; type: functional
[3] = molecular target: T1, 3-hydroxy-3-methylglutaryl-coenzyme A reductase (Homo sapiens, UniProt P04035); assay: Inhibition of human HMGR
T1 sequence (P04035 whole entry): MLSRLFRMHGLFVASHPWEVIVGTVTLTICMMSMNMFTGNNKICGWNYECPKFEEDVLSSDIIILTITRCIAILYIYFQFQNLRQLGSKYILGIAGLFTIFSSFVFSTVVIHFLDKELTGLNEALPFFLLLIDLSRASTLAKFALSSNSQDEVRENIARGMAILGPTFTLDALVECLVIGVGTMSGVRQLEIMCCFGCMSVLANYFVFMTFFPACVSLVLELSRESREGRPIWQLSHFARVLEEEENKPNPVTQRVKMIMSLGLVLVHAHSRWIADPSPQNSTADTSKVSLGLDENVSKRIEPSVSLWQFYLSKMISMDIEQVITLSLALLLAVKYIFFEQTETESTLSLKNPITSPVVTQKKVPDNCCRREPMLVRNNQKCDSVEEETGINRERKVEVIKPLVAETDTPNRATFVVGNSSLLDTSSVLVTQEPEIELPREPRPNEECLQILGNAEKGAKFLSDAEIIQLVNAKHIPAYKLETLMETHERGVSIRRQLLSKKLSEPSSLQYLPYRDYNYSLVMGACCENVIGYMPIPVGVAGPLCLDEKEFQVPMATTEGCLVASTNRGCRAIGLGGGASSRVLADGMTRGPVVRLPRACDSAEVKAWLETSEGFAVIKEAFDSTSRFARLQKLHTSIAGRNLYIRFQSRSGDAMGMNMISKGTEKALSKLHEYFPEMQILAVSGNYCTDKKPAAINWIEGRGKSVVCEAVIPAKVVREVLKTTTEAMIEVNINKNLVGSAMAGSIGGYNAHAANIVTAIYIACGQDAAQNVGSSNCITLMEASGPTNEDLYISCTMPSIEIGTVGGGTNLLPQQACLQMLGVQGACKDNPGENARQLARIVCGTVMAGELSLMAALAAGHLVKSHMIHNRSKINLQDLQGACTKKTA

Compound	IC50 (RAW264.7)	MIC (Candida albicans)	IC50 [3]	IC50 (Splenocyte [1])	IC50 (Splenocyte [2])
C=C1[C@H]2CC[C@@](C)(O)[C@H]2C[C@@]2(C)CC[C@H]([C@@H](C)CC/C=C(\C)CO)[C@@H]2C[C@@H]1O	> 40 µM	–	–	> 40 µM	19.4 µM
C=C1[C@H]2[C@@H](O)C[C@@](C)(O)[C@H]2C[C@@]2(C)CC[C@H]([C@@H](C)CC/C=C(\C)C(=O)O)[C@@H]2C[C@@H]1O	> 40 µM	–	–	> 40 µM	> 40 µM
CC(C)=C/C=C\[C@H](C)[C@H]1CC[C@]2(C)C[C@@H]3C(=O)C=C4C3=C(CC[C@@H]12)C(=O)N4CCO	> 40 µM	–	–	> 40 µM	25.4 µM
C=C1[C@H]2[C@H](O)C[C@@](C)(O)[C@H]2C[C@@]2(C)CC[C@H]([C@@H](C)CC/C=C(\C)C(=O)O)[C@@H]2C[C@@H]1O	> 40 µM	–	–	10.8 µM	> 40 µM
CC(C)=C[C@H]1C[C@H](C)[C@]2(CC[C@]3(C)C[C@@H]4C(=O)C=C5C4=C(CC[C@H]32)C(=O)N5CCO)O1	–	4 µg/mL	2.5 µM	–	–
CC1=CC(=O)/C2=C(\CO)CC[C@H]3[C@@H]([C@@H](C)CC/C=C(\C)C(=O)O)CC[C@]3(C)C[C@H]12	> 40 µM	–	–	> 40 µM	> 40 µM
C[C@@H]1C[C@H]2[C@@H]3CCC4=CC(=O)C=C[C@]4(C)[C@@]3(F)[C@@H](O)C[C@]2(C)[C@@]1(O)C(=O)CO [DEXAMETHASONE]	–	–	–	0.04 µM	0.47 µM

More lines, main results first:

IC50 (RAW264.7)	MIC (Candida albicans)	IC50 [3]	Compound	IC50 (Splenocyte [1])	IC50 (Splenocyte [2])
> 40 µM	–	–	C/C1=C/C[C@H]2[C@@H]([C@@H](C)CC/C=C(\C)CO)CC[C@]2(C)C[C@@]2(O)[C@H](C)CC[C@H]12	2.29 µM	> 40 µM
8.31 µM	–	–	CC(C)=C/C=C\[C@H](C)[C@H]1CC[C@]2(C)C[C@@H]3C(C)=CC(=O)[C@H]3[C@H](CO)CC[C@@H]12	> 40 µM	> 40 µM
> 40 µM	–	–	CC(C)=C/C=C\[C@H](C)[C@H]1CC[C@]2(C)C[C@@]3(O)[C@H](C)C[C@@H](O)[C@@H]3/C(CO)=C\C[C@@H]12	35.8 µM	> 40 µM
> 40 µM	–	–	CC(C)=C/C=C\[C@H](C)[C@H]1CC[C@]2(C)C[C@@]3(O)[C@H](C)CC[C@@H]3/C(CO)=C\C[C@@H]12	15.6 µM	> 40 µM
> 40 µM	–	–	CC1=CC(=O)[C@H]2/C(CO)=C\C[C@H]3[C@@H]([C@@H](C)/C=C\[C@@H]4OC4(C)C)CC[C@]3(C)C[C@H]12	> 40 µM	> 40 µM
> 40 µM	–	–	CC(C)=CCC[C@H](C)[C@H]1CC[C@]2(C)C[C@@]3(O)[C@H](C)CC[C@@H]3/C(CO)=C\C[C@@H]12	> 40 µM	> 40 µM
> 40 µM	–	–	CC(C)=C/C=C/[C@H](C)[C@H]1CC[C@]2(C)C[C@@]3(O)[C@H](C)C[C@@H](O)[C@@H]3/C(CO)=C\C[C@@H]12	> 40 µM	> 40 µM
